Test results taken from patent US20240109877A1, “PYRIMIDINES FOR DEGRADING BRUTON'S TYROSINE KINASE” (AbbVie Inc., priority 2022, published 2024).

Test system: TCL1-driven CLL bearing BTK^C481S mutation
Assay: TCL1-driven CLL bearing BTK C481S mutation in C57BL/6 mice, circulating leukemia burden
Type: in vivo, mouse
Conditions: once daily (QD) for 19 days
From the text: EIA-TCL1 CLL transgenic mice (Crogen Pharmaceuticals LLC) were crossed with BTK^C481S knock-in mice (AbbVie) to generate Eμ-TCL1 transgenic mice carrying the BTK^C481S mutation. The leukemic splenocytes from these BTK^C481S Eμ-TCL1 transgenic mice (Passage 1) were transplanted intravenously into C57BL/6 mice, leading to CLL development in the peripheral blood and spleen. When circulating CLL burden (CD5+CD19+ cells as described below) in the recipient mice reached over 90%, their splenocytes (Passage 2) containing high CLL burden were cryopreserved and used for CLL efficacy studies. […]
To determine the absolute/total leukocyte numbers, complete blood counts were determined for each mouse using the Genesis™ veterinary hematology analyzer (Oxford Science Inc.).
Cells isolated from murine peripheral blood mononuclear cells (PMBCs) were collected to determine antigen expression. […] Cells were gated on CD45+, and thereafter the percentage of cells that were CD5+CD19+ from that subset was calculated. […]
Whole blood was collected weekly post tumor implantation via submandibular cheek bleeding. Circulating leukemic burden was calculated by multiplying absolute/total leukocyte count with the percentage of the leukocytes have the immunophenotype CD19^+CD5^+. […]

Cc1cc(-c2cc(Nc3ccc(N4CCN(CCc5ccc(N6CCC(=O)NC6=O)cc5)C[C@@H]4C)cn3)ncn2)ccc1[C@@H](C)NC(=O)c1nc(C(C)(C)C)no1 [Example 1, 3-tert-butyl-N-[(1R)-1-{4-[6-({5-[(2S)-4-{2-[4-(2,4-dioxo-1,3-diazinan-1-yl)phenyl]ethyl}-2-methylpiperazin-1-yl]pyridin-2-yl}amino)pyrimidin-4-yl]-2-methylphenyl}ethyl]-1,2,4-oxadiazole-5-carboxamide]
circulating leukemia burden (CD19+CD5+ CLL cells per μL) (Dosage 1-4, dose-dependent manner, FIG. 1): controlled circulating leukemia burden | CLL burden control (no increase from the initial tumor burden) (at Dosage 3 and Dosage 4): Complete CLL burden control
